# Measurements as given in publication PMC3672105, “Identification and Enhancement of HLA-A2.1-Restricted CTL Epitopes in a New Human Cancer Antigen-POTE” (PLoS ONE, 2013).
# How the values were obtained:
# HLA-A2 molecule = target: T1, HLA-A2 molecule (Homo sapiens, UniProt P04439, D140Y/D185E/D98H/E176V/E277Q/G131W/G231S/I119V/I121R/I166T/I218V/L300P/L318F/N151K/N90K/P208A/P217A/Q86G/Q94H/R138H/R169H/T345S); assay: T2 binding assay; conditions: for HLA-A2 binder class in words: T2 binding assay; for FI0.5 (peptide concentration that increases HLA-A2.1 expression by 50% over no peptide control): BB7.2 staining, flow cytometry, triplicate; for FI0.5 lower (higher affinity) than that of the POTE 252 peptide: ratio to wild type POTE 252
# T1 construct: endogenous in cells; host or cells: T2 cell line (TAP1/TAP2-deficient)
# Protocol: Peptide binding capacity to the HLA-A2 molecule was measured by using the T2 cell line according to a protocol described previously, [22]. T2 cells (3 × 10^5 cells/well) were incubated overnight in 96-well plates with culture medium (1∶1 mixture of RPMI 1640/Eagle-Hank’s amino acid containing 2.5% fetal bovine serum, 100 U/ml penicillin, and 100 µg/ml streptomycin) with 10 µg/ml β2-microglobulin (Sigma) and different titrated concentrations of peptides (starting from 100 µM with 2-fold serial dilution) as shown in the figures to determine the concentration giving a 50% increase in binding (see below). Cells were washed once with cold HBSS containing 0.1% BSA and incubated for 30 min at 4°C with anti-HLA-A2.1 monoclonal antibody (clone BB7.2) (1∶40 dilution from hybridoma supernatant). After washing, cells were stained with FITC-labeled goat anti-mouse immunoglobulin (BD, San Jose, CA), and the level of HLA expression was measured by flow cytometry. HLA-A2 expression was quantified as fluorescence index (FI) according to the following formula: FI = (geometric mean fluorescence intensity with peptide - geometric mean fluorescence intensity without peptide)/geometric mean fluorescence intensity without peptide. Background fluorescence without BB7.2 was subtracted for each individual value. To compare the different peptides, FI0.5, the peptide concentration that increases HLA-A2.1 expression by 50% over no peptide control background, was calculated from the titration curve for each peptide. It should be noted that the FI0.5 provides a relative measure of peptide affinity or potency among peptides compared side by side, but cannot be taken as a thermodynamic affinity.
# AAD transgenic mice = assay: Ex vivo interferon-γ ELISPOT assay after peptide immunization; assay type: in vivo, mouse; conditions: for IFN-γ response (ELISPOT) after stimulation with the immunizing peptide: AAD mice immunized s.c. with 50 nmol peptide, boosted at 2 weeks, pooled splenocytes of 3 mice, targets pulsed with 1.0 µM (1000 nM) peptide; for cross-reactive IFN-γ response (ELISPOT) to wild type peptide: AAD mice immunized with enhanced peptide, stimulation with wild type peptide
# Protocol: (§1) Cytokines were purchased from Peprotech (Rocky Hill, NJ). […] For all experiments, groups of three mice were used.
# The numbers of IFN-γ secreting cells were determined by an ELISPOT kit (Mouse IFN-gamma ELISpot SixPak; R&D, Minneapolis, […]) or by a set of anti-mouse IFN-γ coating (AN18) and detecting (R4–6A2) monoclonal antibodies (Mabtech) according to the manufacturer’s instructions. Two weeks after the last immunization, spleen cells were plated on antibody-coated plates at 200,000, 100,000 and 50.000 cells/well and stimulated with 200,000 peptide-pulsed naïve spleen cells/well with indicated concentration of peptides for 2 hours. After incubation overnight at 37°C, the plates were washed and detecting antibody was added. An ELISPOT blue color module (R&D) was used for color development. The spots were read by an ELISPOT reader (AID). All samples were analyzed in triplicate.
# [1] = tested on: C1R.AAD cells pulsed with peptides; assay: 4-h 51Cr release CTL assay on peptide-pulsed targets after one week in vitro stimulation; assay type: cell-based, human; conditions: CTLs from immunized AAD mice after one week in vitro stimulation with cognate peptide (1.0 µM), targets pulsed with 1.0 µM peptide
# Source text: as §1
# HHD-2 mice = assay: HLA-A2/peptide tetramer staining and TCR Vβ repertoire of CD8+ T cells; assay type: in vivo, mouse; conditions: HHD-2 mice immunized with the peptide; for tetramer-positive CD8+ T cells: HLA-A2/peptide tetramer staining, Figure 2C
# Source text: as §1
# Tetrameric MHC class I/peptide complexes obtained from the NIH Tetramer Facility were synthesized as described previously, [25]. Briefly, purified single-chain HLA-A2 molecules were synthesized by a prokaryotic expression system (pET; R&D Systems, Minneapolis, MN). The heavy chain was modified containing the Bir-A enzymatic biotinylation site. Single-chain heavy chain-β2-microglobulin and peptide were refolded by dilution into a redoxshuffling buffer system. The refolded product was biotinylated by Bir-A in the presence of […] (Avidity, Denver, CO). Streptavidin-Phycoerythrin conjugate (Jackson ImmunoResearch, West Grove, PA) was added in a 1∶4 molar ratio. Per-CP labeled anti-mouse CD8 antibody (BD Pharmingen) and TCR Vβ screening panel (BD Pharmingen) were used to detect the TCR repertoire of the CTLs.
# [2] = predicted wild type peptides, Figure 1A, T2 cells overnight with peptide (from 100 µM, 2-fold dilutions) and 10 µg/ml β2-microglobulin
# [3] = wild type and substituted peptides, Figure 1B-D, T2 cells overnight with peptide and 10 µg/ml β2-microglobulin
Sequence,FI0.5 (peptide concentration that increases HLA-A2.1 expression by 50% over no peptide control) (HLA-A2 molecule; [3]) [µM],IFN-γ response (ELISPOT) after stimulation with the immunizing peptide (AAD transgenic mice),CTL lysis of peptide-pulsed target cells [1],also measured
GLTPLLLGV [POTE 272–280],,induced significant IFN-γ responses,lysed target cells pulsed with POTE 272,HLA-A2 binder class in words (HLA-A2 molecule; Figure 1A): strongest binding affinity; FI0.5 (peptide concentration that increases HLA-A2.1 expression by 50% over no peptide control) (HLA-A2 molecule; [2]): 0.9 µM
KILEEIESV [POTE 553–561],,did not induce any significant IFN-γ responses,not any significant detectable target cell lysis,HLA-A2 binder class in words (HLA-A2 molecule; Figure 1A): intermediate binders; FI0.5 (peptide concentration that increases HLA-A2.1 expression by 50% over no peptide control) (HLA-A2 molecule; [2]): 5.6 µM
KLLEEIESV [POTE 553-2L],0.1,induced some level of IFN-γ responses only after stimulation with the same peptide,did not lyse target cells pulsed with POTE 553-2L,cross-reactive IFN-γ response (ELISPOT) to wild type peptide (AAD transgenic mice): no cross-reactive response to wild type peptide was detected
KLMAKAALL [POTE 252-7A],4,,,
KLMAKALLL [POTE 252–260],,induced a significant number of IFN-γ spots,lysed target cells pulsed with the wild type POTE 252 as well as POTE 252-9V,HLA-A2 binder class in words (HLA-A2 molecule; Figure 1A): intermediate binders; FI0.5 (peptide concentration that increases HLA-A2.1 expression by 50% over no peptide control) (HLA-A2 molecule; [2]): 1.6 µM; tetramer-positive CD8+ T cells (HHD-2 mice): 9.3%
KLMAKALLV [POTE 252-9V],0.8,induced a significant number of IFN-γ spots,lysed target cells pulsed with the wild type POTE 252 as well as POTE 252-9V,"FI0.5 lower (higher affinity) than that of the POTE 252 peptide (HLA-A2 molecule): ~2 fold; tetramer-positive CD8+ T cells (HHD-2 mice): 6.8%; CD8+tetramer+ T cells positive for Vβ10 (HHD-2 mice; TCR Vβ screening panel, Figure 2D): about 80%; cross-reactive IFN-γ response (ELISPOT) to wild type peptide (AAD transgenic mice): cross-reactivity to both POTE 252 and POTE 252-9V"
LLLEQNADV [POTE 323-7A],2.78,,,
LLLEQNVDV [POTE 323–331],,only marginal IFN-γ responses,failed to lyse target cells pulsed with POTE 323,"HLA-A2 binder class in words (HLA-A2 molecule; Figure 1A): strongest binding affinity; FI0.5 (peptide concentration that increases HLA-A2.1 expression by 50% over no peptide control) (HLA-A2 molecule; [2]): 0.8 µM; IFN-γ response over background level (ELISPOT) (AAD transgenic mice; AAD mice immunized with 50 nmol peptide, targets pulsed with 1000 nM peptide): less than 2 fold"
YILEEIESV [POTE 553-1Y],0.024,induced some level of IFN-γ responses only after stimulation with the same peptide,"lysed target cells pulsed with not only POTE 553-1Y, but also POTE 553 and POTE 553-2L peptides",cross-reactive IFN-γ response (ELISPOT) to wild type peptide (AAD transgenic mice): no cross-reactive response to wild type peptide was detected
YLMAKALLL [POTE 252-1Y],0.9,no significant IFN-γ responses were detected,,FI0.5 lower (higher affinity) than that of the POTE 252 peptide (HLA-A2 molecule): ~2 fold

# More lines, main results first:
FI0.5 (peptide concentration that increases HLA-A2.1 expression by 50% over no peptide control) (HLA-A2 molecule; [3]) [µM],Sequence,IFN-γ response (ELISPOT) after stimulation with the immunizing peptide (AAD transgenic mice),CTL lysis of peptide-pulsed target cells [1],also measured
0.2,KILEEIASV [POTE-553-7A],,,
16.9,KLAAKALLL [POTE 252-3A],,,
0.4,LLAEQNVDV [POTE 323-3A],,,
0.09,LLFEQNVDV [POTE 323-3F],induced significant IFN-γ spots,"lysed target cells pulsed with the POTE 323-3F, as well as wild type POTE 323",FI0.5 better than the wild type peptide (HLA-A2 molecule; ratio to wild type POTE 323): approximately 3 fold; cross-reactive IFN-γ response (ELISPOT) to wild type peptide (AAD transgenic mice): some degree of IFN-γ response was also detected
0.25,YLLEQNVDV [POTE 323-1Y],,,
